The text below walks through data of publication PMC10714182 (JACC: Basic to Translational Science, 2023).

Experiment [1] relates to Sugen-hypoxia (Su/Hx) mouse model of PAH. Nature of the experiment: Sugen-hypoxia experimental PAH, interventional study. In kind it is in vivo, C57BL/6 mice. The settings on record: intervention, treatment for 2 weeks after 2 weeks of PAH induction.
Experiment [2] has as its target T1, 5-HT2B (Homo sapiens, UniProt P41595). Nature of the experiment: 5-HT2B functional readouts. In kind it is cell-based. The settings on record: calcium mobilization and G protein dissociation (BRET2).
Experiment [3] concerns the target T1, 5-HT2B. The conditions noted are these: read-out: previously reported IC50; cited from earlier work.
Experiment [4] concerns Sugen-hypoxia (Su/Hx) mouse model of PAH. Nature of the experiment: Sugen-hypoxia experimental PAH, prevention study. In kind it is in vivo, C57BL/6 mice.

T1 sequence (P41595 whole entry): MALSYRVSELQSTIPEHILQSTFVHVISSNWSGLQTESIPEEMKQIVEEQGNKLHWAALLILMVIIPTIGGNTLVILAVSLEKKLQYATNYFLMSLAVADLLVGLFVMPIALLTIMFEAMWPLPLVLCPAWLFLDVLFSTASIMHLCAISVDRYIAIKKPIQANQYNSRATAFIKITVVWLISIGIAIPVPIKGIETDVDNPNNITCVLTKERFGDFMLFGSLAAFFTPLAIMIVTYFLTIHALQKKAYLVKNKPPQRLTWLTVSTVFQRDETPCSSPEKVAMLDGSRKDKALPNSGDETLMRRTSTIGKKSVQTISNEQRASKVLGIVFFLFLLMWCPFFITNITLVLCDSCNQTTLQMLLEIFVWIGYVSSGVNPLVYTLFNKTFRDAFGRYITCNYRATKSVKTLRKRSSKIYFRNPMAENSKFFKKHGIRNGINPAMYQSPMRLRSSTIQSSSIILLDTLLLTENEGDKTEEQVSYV

With `Cc1cc(NC(=O)Nc2ccc3c(ccn3C)c2)sn1` [SB204741, N-(1-methyl-5-indolyl)-N'-(3-methyl-5-isothiazolyl)urea], the “number of partially and fully muscularized small vessels (0-25 μm)” value is “reduced the number of partially, but not fully, muscularized small vessels” in experiment [1]; “reduced the number of both partially and fully muscularized small vessels” in experiment [4] (treatment before induction of experimental PAH). Further, the “behaviour in 5-HT2B functional readouts” value at 5-HT2B [2] was “true antagonist”. Moreover, the concentration for half-maximal inhibition (IC50) at 5-HT2B [3] was 39.3 nM. Also, in experiment [4] (osmotic pump 3 weeks, SB204741 1 mg/kg/d, VU6047534 10 mg/kg/d), the “RVSP vs vehicle control-treated Su/Hx mice” value is given as “significantly reduced”.
